These results are taken from patent publication US20090054376A1, “BENZOFURAN DERIVATIVES WITH THERAPEUTIC ACTIVITIES” (Pharmos Corporation, priority 2005, published 2009).

Each structure is given as a SMILES string. Read-outs that look alike come from different tables or passages of the source.

Assay [1] deals with visceral pain writhing responses. Nature of the assay: Visceral pain, acetic acid induced writhing responses. In kind it is in vivo, Male ICR mice. Particulars: Mus musculus, iv, single dose 2 mg/kg i.v., compared to untreated group; read-out: Percent Inhibition of Visceral Pain Writhing Responses. As to the method: Male ICR mice (average body weight 25 g, Harlan, Israel) were pretreated by i.v. injection at volume dose of 5 ml/kg of vehicle, control and test compounds at various doses. Other routes of administration were tested for selected compounds including i.m. or s.c. injections at volume dose of 2.5 ml/kg and p.o. gavage at volume dose of 5 ml/kg. Compounds were dissolved in CREMOPHOR®:Ethanol and diluted 1:20 in saline prior to injection or gavage. Compounds administered i.v. were injected fifteen minutes before pain induction, whereas compounds administered i.m., s.c. or p.o. were supplied thirty minutes before pain induction, unless otherwise indicated. Each treatment group, except for controls comprising at least 30 animals, was composed of at least 6 animals. Fifteen or thirty minutes after drug administration, depending on the route of administration, the mice were injected i.p. with 10 ml/kg of 0.6% acetic acid and the number of visceral pain related behaviors (writhing movements globally defined as WR, i.e. stretching, contractions of the abdomen accompanied by an elongation of the body and extension of the hind limbs) was counted over a period of 5 minutes, starting 5 minutes after the acetic acid administration. These visceral pain related behaviors were globally defined as writhing responses (WR). The results are expressed as mean number of writhing responses ±SEM. Data were analyzed using analysis of variance (ANOVA) followed by post-hoc Fisher test.
For orientation: Writhing tests count abdominal constrictions after an irritant is injected.

Another assay addresses T1, Human CB1 Receptor (Homo sapiens, UniProt P21554).
T1 construct: expressed in transfected cells; host or cells: HEK-293 cells (membranes)
The experiment in a line: [35S]GTPγS-binding assay, hCB1. In kind it is biochemical. Particulars: NB = no binding; for Emax: upper plateau of curve. The method, then: (§1) Functional activity of compounds of the invention toward the cannabinoid receptors was determined by stimulation of [^35S]-GTPγS binding using membranes from HEK-293 cells expressing the hCB1 receptor and membranes expressing the hCB2 receptor derived from either Sf9 (PerkinElmer) or from HEK-293 cells. Activities were compared to that of the known cannabinoid full agonist CP55940 (Alexis). The purpose of this experiment is to determine the potency of the compounds of the invention as agonists or antagonists toward each of the receptor tested.
(§2) [^35S]-GTPγS binding reactions were performed at 30° C. in 96-well plates containing 5-10 μg membrane protein suspended in 0.1 ml binding buffer [20 mM HEPES-NaOH, pH 7.4, 5 mM MgCl2, 100 mM NaCl, 0.2% (w/v) bovine serum albumin] supplemented with 50 μM GDP and 0.06 nM-10 μM of the compound being tested. Binding was initiated by the addition of [^35S]GTPγS (0.3 nM final concentration). Incubations were performed for 90 minutes and were terminated by filtration on GF/C filter plates (PerkinEimer). Filters were washed ten times with ice-cold wash buffer (20 mM HEPES-NaOH, pH 7.4, 10 mM sodium pyrophosphate). Non-specific binding was measured in the presence of 15 μM GTPγS.
(§3) Assays were performed in duplicates. Data was analyzed by plotting on the X axis the log concentration against percent of specific [^35S]GTPγS binding out of basal [^35S]GTPγS binding on the Y axis, non-linear regression is then performed using GraphPad Prism, version 3.0 (GraphPad, San Diego, Calif.) to calculate the EC50 and Emax of the compound. The EC50 value represents the concentration at which there is 50% [^35S]GTPγS binding and the Emax value the upper plateau of the curve.
In general terms: Binding of GTPγS marks nucleotide exchange on a G protein.

Assay [2] concerns carrageenan induced inflammatory pain and paw edema. Nature of the assay: Inflammatory pain and paw edema induced by carrageenan. The format is in vivo, Male Sprague Dawley rats. Particulars: Rattus norvegicus, ip, 3 mg/kg i.p. (one asterisk), 3 hours. As to the method: Male Sprague Dawley rats (average body weight 200 g, Harlan, Israel) were transiently sedated by placement on dry ice for the duration of the injections. Rats were injected subcutaneously, in the subplantar region of one (right) paw with 0.1 ml of 2% w/v λ Carrageenan in sterile saline. […] Test compounds were, unless otherwise stated, administered i.p. at initial single dose of 3, 10 or 20 mg/kg, and volume dose of 5 ml/kg, immediately after the carrageenan injection. Selected compounds were also tested p.o. following oral gavage. Vehicle and celecoxib treated animals were used as controls. Each treatment group comprised at least seven animals.
Before induction of inflammatory pain and three hours after injection, the animals reactions to pain stimuli were tested in two systems. The first stimulus was thermal and assessed by the Plantar Test according to Hargreaves, using Ugo Basile Model 7370. The scale was set to an intensity of 50 arbitrary units. The latency time till the animal lift a paw as a reaction to the thermal stimulus was recorded for both the inflamed and non-inflamed hind paws. The second stimulus was mechanical (tactile) and assessed using a Dynamic Plantar Sesthesiomether (Ugo Basile Model 73400-002). […] Finally, the impact on paw edema was assessed. Paw thickness was measured using a dial thickness gauge (Spring-dial, constant low pressure gauge, Mitutoyo, TG/L-1, 0.01 mm) and paw volume was measured using a plethysmometer (model #7150, Ugo Basile, Italy). At the end of the study, animals were euthanized.
The results are measured as the differences between the two hind paws at time 0 and 3 hours both as ALT, for the latency time in the thermal part of the study, and as ΔForce, for the mechanical part of the study. The paw volume is expressed as percent from vehicle treated animals. Results are expressed as mean±SEM for each treatment group and the differences among those groups are analyzed by analysis of variance (ANOVA) followed by post-hoc Tukey's test.
Results refer to i.p. treatment with 10 mg/kg. Results marked with one asterisk refer to a dose 3 mg/kg, whereas two asterisks refer to 20 mg/kg. Celecoxib is included as reference.

For a further assay, the target named is T2, Human CB2 Receptor (Homo sapiens, UniProt P34972).
T2 construct: host or cells: Sf9 or HEK-293 cells (membranes)
The experiment in a line: [35S]GTPγS-binding assay, hCB2. The format is biochemical. Conditions: for EC50 / Emax / agonistic activity toward cannabinoid receptors (in words): GTPγS; for EC50 / Emax: Human CB2 Receptor, NB = no binding; for Emax: upper plateau of curve; for agonistic activity toward cannabinoid receptors (in words): hCB1 and hCB2; for selectivity toward CB2: GTPγS agonism, CB2 versus CB1. As to the method:
as §1, §2, §3

Broadly, the EC50 is the midpoint of the concentration-response curve. As a reminder, the Emax is the maximal effect, on the per cent scale that the assay sets.

T1 sequence (P21554 whole entry): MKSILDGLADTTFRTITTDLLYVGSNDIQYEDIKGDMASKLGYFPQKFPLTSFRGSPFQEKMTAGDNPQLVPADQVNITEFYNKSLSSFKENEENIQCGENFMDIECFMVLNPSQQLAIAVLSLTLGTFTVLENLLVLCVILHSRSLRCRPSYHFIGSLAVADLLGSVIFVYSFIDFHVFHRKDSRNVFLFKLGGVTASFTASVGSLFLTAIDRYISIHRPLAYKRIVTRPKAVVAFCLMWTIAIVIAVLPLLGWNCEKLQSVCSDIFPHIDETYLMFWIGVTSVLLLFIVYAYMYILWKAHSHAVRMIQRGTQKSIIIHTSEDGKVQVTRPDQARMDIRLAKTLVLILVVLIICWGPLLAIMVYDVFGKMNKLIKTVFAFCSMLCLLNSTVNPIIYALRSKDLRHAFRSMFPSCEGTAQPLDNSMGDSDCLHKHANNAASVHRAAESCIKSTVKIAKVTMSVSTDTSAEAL
T2 sequence (P34972 whole entry): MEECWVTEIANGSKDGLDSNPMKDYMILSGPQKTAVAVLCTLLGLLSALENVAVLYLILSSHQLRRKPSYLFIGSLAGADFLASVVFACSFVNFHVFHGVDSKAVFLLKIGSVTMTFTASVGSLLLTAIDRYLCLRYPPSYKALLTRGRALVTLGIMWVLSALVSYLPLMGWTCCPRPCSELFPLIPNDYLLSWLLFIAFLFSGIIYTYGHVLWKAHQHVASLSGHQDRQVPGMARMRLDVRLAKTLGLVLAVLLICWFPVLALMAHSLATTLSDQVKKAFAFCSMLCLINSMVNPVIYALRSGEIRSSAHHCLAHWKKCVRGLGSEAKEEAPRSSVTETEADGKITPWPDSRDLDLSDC

For the compound `CCCCCCC(C)(C)c1cc(O)c2c(c1)OC1CC(C)(C)CCC21` (stereo not shown) [Compound C6S-17, 3-(1,1-dimethylheptyl)-7,7-dimethyl-5a,6,7,8,9,9a-hexahydro-dibenzofuran-1-ol], in assay [1], the inhibition in vivo at 2 mg/kg worked out at 38%. For the same compound, the EC50 on Human CB1 Receptor came to 2880 nM; at Human CB2 Receptor, 4 nM. In addition, the Emax was -25% on Human CB1 Receptor and 43% on Human CB2 Receptor. Besides, the inhibition in vivo at 3 mg/kg was 37% in assay [2] (mechanical stimulus, read-out: Percent Inhibition of Inflammatory Pain Responses, ΔForce); 44% in assay [2] (reduction in paw swelling, read-out: Percent Inhibition of Inflammatory Pain Responses, Edema); 60% in assay [2] (thermal stimulus, read-out: Percent Inhibition of Inflammatory Pain Responses, ΔLT). For the same compound, the “agonistic activity toward cannabinoid receptors (in words)” value on Human CB2 Receptor is reported as “agonists specific toward the CB2 receptor”.
Consider `CCCCCCC(C)(C)c1cc(OC(=O)C=CC(=O)O)c2c(c1)OC1CCCCCC21` (stereo not drawn) [Compound C7S-9, But-2-enedioic acid mono-[2-(1,1-dimethylheptyl)-5,6,7,8,9,9a-hexahydro-4bH-10-oxa-benzo[α]azulen-4-yl]ester], for which the inhibition in vivo at 2 mg/kg in assay [1] was determined as 26%. For the same compound, the half-maximal effective concentration (EC50) at Human CB1 Receptor was more than 10000 nM; at Human CB2 Receptor, 712 nM. The Emax on Human CB2 Receptor turned out to be 52%.
Take `CCCCCCC(C)(C)c1cc(OC(=O)C=CC(=O)O)c2c(c1)OC1C(I)CCCCC21` (stereo not drawn) [Compound C7S-28, But-2-enedioic acid mono-[2-(1,1-dimethylheptyl)-9-iodo-5,6,7,8,9,9a-hexahydro-4bH-10-oxa-benzo[α]azulen-4-yl]ester]: the inhibition in vivo at 2 mg/kg in assay [1] worked out at 56%. In addition, at Human CB1 Receptor, the EC50 amounted to 217 nM and the Emax was determined as 118%. At Human CB2 Receptor, the “selectivity toward CB2” value is on record as “about 10 fold”, the concentration for a half-maximal effect (EC50) came out at 16 nM, the Emax is 44% and the “agonistic activity toward cannabinoid receptors (in words)” value is “agonists toward both receptors with some degree of selectivity toward the CB2 receptor”.
`CCCCCCC(C)(C)c1cc(O)c2c(c1)OC1C(I)CCCCC21` (stereo not drawn) [Compound C7S-26, 2-(1,1-Dimethylheptyl)-9-iodo-5,6,7,8,9,9a-hexahydro-4bH-10-oxa-benzo[α]azulen-4-ol]: the inhibition in vivo at 2 mg/kg in assay [1] turned out to be 26%. In addition, at Human CB1 Receptor, the EC50 worked out at 20 nM and the Emax stood at 155%. Also, on Human CB2 Receptor, the “selectivity toward CB2” value is recorded as “about 285 fold”, the half-maximal effective concentration (EC50) is 0.07 nM, the Emax is 38% and the “agonistic activity toward cannabinoid receptors (in words)” value is “agonists toward both receptors with some degree of selectivity toward the CB2 receptor”.
For the compound `CCCCCCC(C)(C)c1cc(O)c2c(c1)OC1C(O)CCCCC21` (single isomer, unassigned) [Compound C7S-29, 2-(,1-dimethylheptyl)-5,6,7,8,9,9a-hexahydro-4bH-10-oxa-benzo[α]azulen-4,9-diol], the inhibition in vivo at 2 mg/kg in assay [1] was more than 90%. Further, at Human CB1 Receptor, the midpoint of the response, the EC50, lay at 79 nM and the Emax turned out to be 41%. On Human CB2 Receptor, the “selectivity toward CB2” value is “non-selective agonist”, the half-maximal effective concentration (EC50) was 54 nM, the Emax came to 60% and the “agonistic activity toward cannabinoid receptors (in words)” value is “agonists toward both receptors with some degree of selectivity toward the CB2 receptor”.
